{"source": "patent US12383539B2", "about": "(Cavion, Inc., priority 2018, dated 2025)", "key": {"[1]": {"test_system": "patients with essential tremor", "assay": "T-CALM: Patient Global Impression of Change (PGIC)", "assay_type": "in vivo, human", "details": "for PGIC score, LS mean (SE) / PGIC score, LS mean difference from placebo (95% CI): ANCOVA", "description": "Treatment success as measured by PGIC was summarized using descriptive statistics.\nThe Patient Global Impression of Change (PGIC) will quantify a patient's impression of improvement or decline over time with respect to ET treatment (see, e.g., Guy, Assessment Manual for Psychopharmacology. Rockville, MD: Department of Health, Education, and Welfare Public Health Service Alcohol, Drug Abuse, and Mental Health Administration, 1976). The patient will use the PGIC scale to assess current health status versus initiation of treatment and calculate the difference."}, "[2]": {"assay": "Food effect: MR2 capsules fed vs fasted", "assay_type": "in vivo, human", "details": "MR2 CX-8998, single 8 mg dose", "description": "Subjects will be screened for study eligibility within 28 days before administration of the first dose of study drug. Subjects who meet the study eligibility criteria will be admitted to the clinical research unit in the afternoon of the day before administration of the first dose of study drug (Period 1/Day −1)."}}}
{"smiles": "CC(C)c1ccc(CC(=O)N[C@H](C)c2ccc(OCC(F)(F)F)cn2)cc1", "note": "[CX-8998]", "values": [{"measurement": "PGIC score 0-no change: subjects, number (%)", "setting": "[1]; Day 15", "result": "11 (28%)"}, {"measurement": "PGIC score 1-minimally improved: subjects, number (%)", "setting": "[1]; Day 15", "result": "17 (44%)"}, {"measurement": "PGIC score 2-much improved: subjects, number (%)", "setting": "[1]; Day 15", "result": "8 (21%)"}, {"measurement": "PGIC score 3-very much improved: subjects, number (%)", "setting": "[1]; Day 15", "result": "1 (3%)"}, {"measurement": "PGIC score (rescaled −3 to 3), Mean (SD)", "setting": "[1]; Day 15", "result": "1 (1.0)"}, {"measurement": "PGIC score (rescaled −3 to 3), Median (minimum, maximum)", "setting": "[1]; Day 15", "result": "1 (−2, 3)"}, {"measurement": "PGIC score −1-minimally worse: subjects, number (%)", "setting": "[1]; Day 15", "result": "1 (3%)"}, {"measurement": "PGIC score −2-much worse: subjects, number (%)", "setting": "[1]; Day 15", "result": "1 (3%)"}, {"measurement": "PGIC score −3-very much worse: subjects, number (%)", "setting": "[1]; Day 15", "result": 0}, {"measurement": "PGIC category 0 No change, number (%) of patients", "setting": "[1]; Day 15, N = 39", "result": "11 (28%)"}, {"measurement": "PGIC category 1 Minimally improved, number (%) of patients", "setting": "[1]; Day 15, N = 39", "result": "17 (44%)"}, {"measurement": "PGIC category 2 Much improved, number (%) of patients", "setting": "[1]; Day 15, N = 39", "result": "8 (21%)"}, {"measurement": "PGIC category 3 Very much improved, number (%) of patients", "setting": "[1]; Day 15, N = 39", "result": "1 (3%)"}, {"measurement": "PGIC category −1 Minimally worse, number (%) of patients", "setting": "[1]; Day 15, N = 39", "result": "1 (3%)"}, {"measurement": "PGIC category −2 Much worse, number (%) of patients", "setting": "[1]; Day 15, N = 39", "result": "1 (3%)"}, {"measurement": "PGIC category −3 Very much worse, number (%) of patients", "setting": "[1]; Day 15, N = 39", "result": 0}, {"measurement": "PGIC: No Change, number of subjects", "setting": "[1]; Day 15, total 39", "result": 11}, {"measurement": "PGIC: Worsened, number of subjects", "setting": "[1]; Day 15, total 39", "result": 2}, {"measurement": "PGIC score, LS mean (SE)", "setting": "[1]; Day 15", "result": "0.9 (0.17)"}, {"measurement": "PGIC score, LS mean difference from placebo (95% CI)", "setting": "[1]; Day 15", "result": "0.7 (0.2, 1.1)"}, {"measurement": "PGIC score 0-no change: subjects, number (%)", "setting": "[1]; Day 28", "result": "14 (36%)"}, {"measurement": "PGIC score 1-minimally improved: subjects, number (%)", "setting": "[1]; Day 28", "result": "10 (26%)"}, {"measurement": "PGIC score 2-much improved: subjects, number (%)", "setting": "[1]; Day 28", "result": "7 (18%)"}, {"measurement": "PGIC score 3-very much improved: subjects, number (%)", "setting": "[1]; Day 28", "result": "3 (8%)"}, {"measurement": "PGIC score (rescaled −3 to 3), Mean (SD)", "setting": "[1]; Day 28", "result": "1 (1.3)"}, {"measurement": "PGIC score (rescaled −3 to 3), Median (minimum, maximum)", "setting": "[1]; Day 28", "result": "1 (−3, 3)"}, {"measurement": "PGIC score −1-minimally worse: subjects, number (%)", "setting": "[1]; Day 28", "result": "1 (3%)"}, {"measurement": "PGIC score −2-much worse: subjects, number (%)", "setting": "[1]; Day 28", "result": "1 (3%)"}, {"measurement": "PGIC score −3-very much worse: subjects, number (%)", "setting": "[1]; Day 28", "result": "1 (3%)"}, {"measurement": "PGIC: Improved, number of subjects", "setting": "[1]; Day 28, total 37", "result": 20}, {"measurement": "PGIC: No Change, number of subjects", "setting": "[1]; Day 28, total 37", "result": 14}, {"measurement": "PGIC: Worsened, number of subjects", "setting": "[1]; Day 28, total 37", "result": 3}, {"measurement": "PGIC score, LS mean (SE)", "setting": "[1]; Day 28", "result": "0.8 (0.19)"}, {"measurement": "PGIC score, LS mean difference from placebo (95% CI)", "setting": "[1]; Day 28", "result": "0.4 (−0.1, 0.9)"}, {"measurement": "PGIC category 0 No change, number (%) of patients", "setting": "[1]; Day 28, N = 39", "result": "14 (36%)"}, {"measurement": "PGIC category 1 Minimally improved, number (%) of patients", "setting": "[1]; Day 28, N = 39", "result": "10 (26%)"}, {"measurement": "PGIC category 2 Much improved, number (%) of patients", "setting": "[1]; Day 28, N = 39", "result": "7 (18%)"}, {"measurement": "PGIC category 3 Very much improved, number (%) of patients", "setting": "[1]; Day 28, N = 39", "result": "3 (8%)"}, {"measurement": "PGIC category −1 Minimally worse, number (%) of patients", "setting": "[1]; Day 28, N = 39", "result": "1 (3%)"}, {"measurement": "PGIC category −2 Much worse, number (%) of patients", "setting": "[1]; Day 28, N = 39", "result": "1 (3%)"}, {"measurement": "PGIC category −3 Very much worse, number (%) of patients", "setting": "[1]; Day 28, N = 39", "result": "1 (3%)"}, {"measurement": "effect of fed state on overall exposure (AUC)", "setting": "[2]", "result": "does not appear to significantly impact overall exposure"}, {"measurement": "effect of fed vs fasted state on absorption", "setting": "[2]", "result": "impacts early absorption of the CX-8998, but does not appear to significantly impact late absorption"}]}
